Measured values from patent US6974671B1, “Methods for indentifying compounds that modulate gluconeogenesis through the binding of CREB to the PGC-1 promoter” (Salk Institute for Biological Studies, priority 2001, dated 2005).

Assays:
[1] = test system: PGC-1 promoter; experiment: Transient assay of HepG2 cells with PGC-1 luciferase reporter; assay type: cell-based, human
From the text: (§1) Plasmids. Expression plasmids pZEO-ACREB^22 and pcDNA3-PGC-1^24 have been described previously. Liver specific A-CREB transgene was constructed by inserting A-CREB cDNA into a liver specific albumin promoter/enhancer plasmid^5. To construct luciferase expression plasmids −490PEPCKLuc and −355PEPCKLuc BamHI/BglII fragments of the PEPCK promoter region containing 490 or 355 bp of the mouse PEPCK 5′-flanking region, respectively, were cloned into the pGL3 basic luciferase reporter vector (Promega, St. Luis Obispo). PGC-1 reporter mPGCLuc was constructed by inserting a […] fragment of the mouse PGC-1 promoter containing 170 bp of the 5′-flanking region and 68 bp of Exon 1 into the pGL3 vector.
(§2) Cell culture and transient transfection assays. Human hepatoma HepG2 cells were transfected using the Lipofectamine 2000 reagent (GIBCO BRL) according to manufacturers instructions (500 ng of indicator plasmid/well). Where indicated, expression plasmids encoding A-CREB (pZeo-ACREB)^22 or PGC-1 (pcDNA3-PGC-1)^24 were cotransfected (50 ng or 800 ng plasmid/well, respectively). Cotransfections were performed with a constant DNA amount by adding the empty pcDNA3 vector (Invitrogen). Cells were treated with Forskolin (10 μM) and/or Dexamethasone (100 nM) or insulin (10 nM) for 14 h. […]

[2] = test system: PEPCK promoter; experiment: Transient assay of HepG2 cells with PEPCK luciferase reporter; assay type: cell-based, human; details: HepG2, PEPCK reporter plasmid, cAMP agonist
From the text: as §1, §2

Row | Compound | effect on PGC-1 reporter activity ([1]; HepG2, insulin 10 nM) | induction of PGC-1 promoter activity ([1]; HepG2, PGC-1 luciferase reporter (-170 to +68), forskolin 10 μM) | stimulation of PEPCK promoter activity [2]
1 | insulin | blocked |  | 
2 | C=C[C@@]1(C)CC(=O)[C@]2(O)[C@@]3(C)[C@@H](O)CCC(C)(C)[C@@H]3[C@H](O)[C@H](OC(C)=O)[C@@]2(C)O1 [cAMP agonist, Forskolin] |  | 3–4 fold | 3–4 fold
